Read-outs that look alike come from different tables or passages of the source.
Legend:
[1] = system: PC3-PIP/flu tumor-bearing mice; experiment: Biodistribution studies; format: in vivo, BALB/c nude mice; conditions: 48 h p.i.
[2] = system: PSMA-positive PC-3 PIP tumor xenografts; experiment: Therapy study in PC-3 PIP tumor-bearing mice; format: in vivo, BALB/c nude mice; conditions: 10 MBq
Experimental: Five days after subcutaneous inoculation of four groups of mice with either PC-3 PIP or PC-3 flu tumor cells on the right shoulder (4 × 10^6 cells in 100 μL HBSS), the mice were intravenously injected with either vehicle only (saline with 0.05% BSA, n = 6 and n = 4, respectively) or with 30 kBq [^225Ac]Ac-SibuDAB (1 nmol per mouse; n = 4 per group) diluted in vehicle (Table 1).
After tumor cell inoculation, mice bearing PC-3 PIP tumor xenografts were intravenously injected with vehicle only (n = 6) or with [^225Ac]Ac-SibuDAB or [^225Ac]Ac-PSMA-617, respectively, applied at 5 kBq or 10 kBq (1 nmol per mouse; n = 6 per group; Table 1). The control group consisted of mice from several studies (n = 12 mice) and the data from this group were published previously.
After administration of the radioligands, the mice were monitored over 8 weeks using the same measures as previously published by Umbricht et al.. The relative body mass was defined as [BMx/BM0], where BMx is the body mass in grams at a given Day x and BM0 is the body mass in grams at Day 0. The tumor dimension was determined by measuring the longest tumor axis (L) and its perpendicular axis (W) with a digital caliper. The tumor volume (V) was calculated according to the equation [V = 0.5 × (LW^2)]. The relative tumor volume was defined as [TVx/TV0], where TVx is the tumor volume in mm^3 at a given Day x, and TV0 is the tumor volume in mm^3 at Day 0. Endpoint criteria that required euthanasia were defined as (i) body mass loss of >15%, (ii) a tumor volume of >800 mm^3, (iii) a combination of body mass loss of >10% and a tumor volume of >700 mm^3 or, (iv) signs of unease and pain or a combination thereof using a scoring system as previously reported. The median survival of mice of each group was assessed with Kaplan–Meier curves. Potential early side effects for mice that survived until study end were determined based on blood chemistry and organ-to-brain mass ratios on Day 56 by comparison to values obtained from an additional group of therapy-naïve mice (n = 4) without tumors but of the same age (Supplementary Material: Section S9).
Table S10. Biodistribution data and tumor-to-background ratios obtained in PC3-PIP/flu tumor-bearing mice 48 h after injection of [225Ac]Ac-SibuDAB, [177Lu]Lu-SibuDAB, [225Ac]Ac-PSMA-617 or [177Lu]Lu-PSMA-617. Decay-corrected data of accumulated activity are shown as [% IA/g]-values, representing the average ± SD.
Biodistribution data at 48 h p.i.
1 Data of [177Lu]Lu-PSMA-617 were previously published by Benešová et al., Mol Pharm 2018 [2]; Copyright 2018, American Chemical Society.
Purpose: In order to determine the therapeutic efficacy of [225Ac]Ac-SibuDAB in com-parison to [225Ac]Ac-PSMA-617 as well as the 177Lu-labeled counterparts, therapy studies were conducted in PC-3 PIP xenograft-bearing BALB/c nude mice.
Methods: The methods of the therapy study to assess the therapeutic efficacy of [225Ac]Ac-SibuDAB are reported in the main manuscript. An additional group of mice was treated with 10 MBq (1 nmol) [177Lu]Lu-SibuDAB under the same experimental condi-tions. Data previously acquired by our group for mice treated with 5 MBq [177Lu]Lu-SibuDAB were published by Borgna & Deberle et al. and data of mice treated with 5 MBq or 10 MBq [177Lu]Lu-PSMA-617 were previously published by Tschan et al. and Umbricht et al., respectively.
Results: The assessment of the PSMA-specific therapeutic effect of [225Ac]Ac-SibuDAB as well as the comparison to [225Ac]Ac-PSMA-617 are described in the main ar-ticle. The body mass of effectively treated mice, in which the tumor disappeared entirely […]
tumor-bearing mice that were treated with only vehicle as well as for some mice that were treated with 5 kBq or 10 kBq [225Ac]Ac-PSMA-617 and experienced a relapse in tumor

[3] = cited from earlier work
[4] = system: PSMA-positive PC-3 PIP cells; conditions: 4 h incubation; ref Borgna & Deberle et al., Mol Pharm 2022; cited from earlier work
PSMA = target: T1, PSMA (Homo sapiens, UniProt Q04609); conditions: ref Borgna & Deberle et al., Mol Pharm 2022; cited from earlier work
T1 construct: expressed in transfected cells; host or cells: PC-3 PIP prostate cancer cells (transduced to express PSMA), provided by Prof; Dr. Martin Pomper, Johns Hopkins University

[5] = system: PC3-PIP/flu tumor-bearing mice; conditions: ref Borgna & Deberle et al., Mol Pharm 2022, cited from earlier work
[6] = system: PSMA-positive PC-3 PIP tumor xenografts; design: method as in Borgna & Deberle et al., Mol Pharm 2022; conditions: 5 MBq, ref Borgna & Deberle et al., Mol Pharm 2022; cited from earlier work

T1 sequence (Q04609 whole entry): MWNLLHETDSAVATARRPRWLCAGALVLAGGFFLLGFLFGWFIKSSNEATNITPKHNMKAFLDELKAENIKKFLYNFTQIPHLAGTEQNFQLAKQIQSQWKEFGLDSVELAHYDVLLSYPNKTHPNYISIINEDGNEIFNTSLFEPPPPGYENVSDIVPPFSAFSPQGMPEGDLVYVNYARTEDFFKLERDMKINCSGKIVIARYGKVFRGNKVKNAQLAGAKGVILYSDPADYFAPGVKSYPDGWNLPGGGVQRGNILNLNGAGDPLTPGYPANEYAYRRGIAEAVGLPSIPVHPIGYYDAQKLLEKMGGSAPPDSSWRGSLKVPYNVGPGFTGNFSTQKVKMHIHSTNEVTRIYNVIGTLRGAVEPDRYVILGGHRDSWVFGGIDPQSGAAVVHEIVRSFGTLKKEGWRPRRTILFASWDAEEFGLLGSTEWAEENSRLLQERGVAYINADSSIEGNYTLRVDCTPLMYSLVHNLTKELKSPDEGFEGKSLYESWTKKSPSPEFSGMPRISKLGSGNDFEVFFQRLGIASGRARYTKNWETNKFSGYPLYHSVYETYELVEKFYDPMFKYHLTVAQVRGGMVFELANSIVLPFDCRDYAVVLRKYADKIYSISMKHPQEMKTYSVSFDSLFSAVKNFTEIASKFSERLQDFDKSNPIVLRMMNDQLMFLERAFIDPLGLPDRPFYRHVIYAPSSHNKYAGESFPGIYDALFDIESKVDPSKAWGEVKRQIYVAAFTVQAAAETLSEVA

CC(C)Cc1ccc(C(C)C(=O)NC(CCN)C(=O)NCCCCC(NC(=O)CN2CCN(CC(=O)[O-])CCN(CC(=O)[O-])CCN(CC(=O)[O-])CC2)C(=O)NCC2CCC(C(=O)NC(Cc3ccc4ccccc4c3)C(=O)NCCCCC(NC(=O)NC(CCC(=O)O)C(=O)O)C(=O)O)CC2)cc1.[177Lu+3] (stereo not shown) [[^177Lu]Lu-SibuDAB]
Blood, accumulated activity [1]: 0.27 ± 0.04 % IA/g
Bone, accumulated activity [1]: ≤ 0.10 % IA/g
Heart, accumulated activity [1]: 0.14 ± 0.02 % IA/g
Intestines, accumulated activity [1]: 0.10 ± 0.03 % IA/g
Kidneys, accumulated activity [1]: 3.5 ± 0.7 % IA/g
Liver, accumulated activity [1]: 0.44 ± 0.06 % IA/g
Lung, accumulated activity [1]: 0.33 ± 0.07 % IA/g
Muscle, accumulated activity [1]: 0.07 ± 0.02 % IA/g
PC-3 PIP tumor, accumulated activity [1]: 69 ± 12 % IA/g
PC-3 flu tumor, accumulated activity [1]: 0.30 ± 0.07 % IA/g
Salivary glands, accumulated activity [1]: 0.18 ± 0.05 % IA/g
Spleen, accumulated activity [1]: 0.43 ± 0.10 % IA/g
Stomach, accumulated activity [1]: 0.12 ± 0.06 % IA/g
Tumor-to-blood ratio [1]: 252 ± 24
Tumor-to-kidney ratio [1]: 20 ± 2
Tumor-to-liver ratio [1]: 157 ± 14
mice whose tumor xenografts disappeared completely without relapse until Day 56 [2]: five out of six
start of tumor regrowth in the other mice [2]: ~ 7 weeks
mice whose tumor xenografts disappeared completely without relapse until Day 56 ([2]; listed as [177Lu]Lu-SibuDAB): five out
logD value [3]: −2.3 ± 0.1
Cell uptake [4]: 53 ± 1%
Internalized fraction [4]: 15 ± 2%
Kd (PSMA): 27 nM
Blood, accumulated activity ([5]; 1 h p.i.): 17 ± 2 % IA/g
Bone, accumulated activity ([5]; 1 h p.i.): 2.1 ± 0.3 % IA/g
Heart, accumulated activity ([5]; 1 h p.i.): 5.3 ± 0.8 % IA/g
Intestines, accumulated activity ([5]; 1 h p.i.): 1.8 ± 0.3 % IA/g
Kidneys, accumulated activity ([5]; 1 h p.i.): 22 ± 5 % IA/g
Liver, accumulated activity ([5]; 1 h p.i.): 3.5 ± 0.6 % IA/g
Lung, accumulated activity ([5]; 1 h p.i.): 12 ± 2 % IA/g
Muscle, accumulated activity ([5]; 1 h p.i.): 1.9 ± 0.3 % IA/g
PC-3 PIP tumor, accumulated activity ([5]; 1 h p.i.): 38 ± 7 % IA/g
PC-3 flu tumor, accumulated activity ([5]; 1 h p.i.): 2.7 ± 0.4 % IA/g
Salivary glands, accumulated activity ([5]; 1 h p.i.): 3.5 ± 0.4 % IA/g
Spleen, accumulated activity ([5]; 1 h p.i.): 3.0 ± 0.4 % IA/g
Stomach, accumulated activity ([5]; 1 h p.i.): 1.5 ± 0.4 % IA/g
Tumor-to-blood ratio ([5]; 1 h p.i.): 2.3 ± 0.5
Tumor-to-kidney ratio ([5]; 1 h p.i.): 1.7 ± 0.3
Tumor-to-liver ratio ([5]; 1 h p.i.): 11 ± 2
Blood, accumulated activity ([5]; 4 h p.i.): 2.9 ± 1.9 % IA/g
Bone, accumulated activity ([5]; 4 h p.i.): 0.49 ± 0.27 % IA/g
Heart, accumulated activity ([5]; 4 h p.i.): 1.1 ± 0.7 % IA/g
Intestines, accumulated activity ([5]; 4 h p.i.): 0.46 ± 0.23 % IA/g
Kidneys, accumulated activity ([5]; 4 h p.i.): 12 ± 3 % IA/g
Liver, accumulated activity ([5]; 4 h p.i.): 1.3 ± 0.5 % IA/g
Lung, accumulated activity ([5]; 4 h p.i.): 3.1 ± 2.8 % IA/g
Muscle, accumulated activity ([5]; 4 h p.i.): 0.39 ± 0.22 % IA/g
PC-3 PIP tumor, accumulated activity ([5]; 4 h p.i.): 66 ± 11 % IA/g
PC-3 flu tumor, accumulated activity ([5]; 4 h p.i.): 0.95 ± 0.71 % IA/g
Salivary glands, accumulated activity ([5]; 4 h p.i.): 0.82 ± 0.43 % IA/g
Spleen, accumulated activity ([5]; 4 h p.i.): 1.1 ± 0.6 % IA/g
Stomach, accumulated activity ([5]; 4 h p.i.): 0.49 ± 0.29 % IA/g
Tumor-to-blood ratio ([5]; 4 h p.i.): 49 ± 51
Tumor-to-kidney ratio ([5]; 4 h p.i.): 5.5 ± 1.5
Tumor-to-liver ratio ([5]; 4 h p.i.): 61 ± 29
Blood, accumulated activity ([5]; 24 h p.i.): 0.26 ± 0.08 % IA/g
Bone, accumulated activity ([5]; 24 h p.i.): 0.11 ± 0.04 % IA/g
Heart, accumulated activity ([5]; 24 h p.i.): 0.15 ± 0.05 % IA/g
Intestines, accumulated activity ([5]; 24 h p.i.): 0.13 ± 0.06 % IA/g
Kidneys, accumulated activity ([5]; 24 h p.i.): 4.3 ± 1.0 % IA/g
Liver, accumulated activity ([5]; 24 h p.i.): 0.54 ± 0.18 % IA/g
Lung, accumulated activity ([5]; 24 h p.i.): 0.31 ± 0.10 % IA/g
Muscle, accumulated activity ([5]; 24 h p.i.): ≤ 0.10 % IA/g
PC-3 PIP tumor, accumulated activity ([5]; 24 h p.i.): 62 ± 18 % IA/g
PC-3 flu tumor, accumulated activity ([5]; 24 h p.i.): 0.38 ± 0.09 % IA/g
Salivary glands, accumulated activity ([5]; 24 h p.i.): 0.18 ± 0.05 % IA/g
Spleen, accumulated activity ([5]; 24 h p.i.): 0.40 ± 0.13 % IA/g
Stomach, accumulated activity ([5]; 24 h p.i.): 0.12 ± 0.06 % IA/g
Tumor-to-blood ratio ([5]; 24 h p.i.): 247 ± 34
Tumor-to-kidney ratio ([5]; 24 h p.i.): 14 ± 1
Tumor-to-liver ratio ([5]; 24 h p.i.): 117 ± 14
mice whose tumor xenografts disappeared completely without relapse until Day 56 [6]: two out of six
start of tumor regrowth in the other mice [6]: ~ 4 weeks
